These results are taken from PubChem BioAssay AID1259408 (Genetic Toxicology Data Bank (GENE-TOX), 2018).

Activity calls are given as the source filed them. The rule behind the calls is not given here.

The data set concerns GENE-TOX genotoxicity assays, various organisms and cells. Put plainly: GENE-TOX mutagenicity studies. As to conditions: for call: Assay Type: In vivo carcinogenicity studies.
Where [1] appears, read: Species/Cell Type: Fischer rat embryo (RLV/1706) cells, Assay Type: Cell transformation, viral enhanced, Assay Code: CTR+, Evaluation Type: Evaluation A (Pre-1980).
[2] abbreviates: Species/Cell Type: Mouse, Sex: Male, Assay Type: Sperm morphology, Assay Code: SPI-, Evaluation Type: Evaluation A (Pre-1980).
Where [3] appears, read: Species/Cell Type: Nonhuman, Assay Code: CCG+, Evaluation Type: Evaluation A (Pre-1980).
The mark [4] stands for this setting: Species/Cell Type: Salmonella typhimurium, Assay Type: Forward and reverse gene mutation, host-mediated assay, Assay Code: HMA+, Evaluation Type: Evaluation A (Pre-1980).
[5] abbreviates: Species/Cell Type: Syrian hamster embryo (SHE) cells, Assay Type: Cell transformation, clonal assay, Assay Code: CTC+, Evaluation Type: Evaluation A (Pre-1980).
Where [6] appears, read: Species/Cell Type: Escherichia coli polA (W3119 vs P3478), Assay Type: Rec-assay, DNA effects (bacterial DNA repair), Assay Code: RE1-, Evaluation Type: Evaluation A (Pre-1980).
Where [7] appears, read: Species/Cell Type: Salmonella typhimurium (one or more of the five standard strains: TA98, TA100, TA1535, TA1537, and TA1538), Assay Type: Histidine reverse gene mutation, Ames assay, Assay Code: SALT, Evaluation Type: Evaluation A (Pre-1980).
Where [8] appears, read: Species/Cell Type: Escherichia coli WP2, Assay Type: Tryptophan reverse gene mutation, Assay Code: WP2-, Evaluation Type: Evaluation A (Pre-1980).
Where [9] appears, read: Species/Cell Type: Allium cepa, Assay Type: Chromosome aberrations, Assay Code: ALC+, Evaluation Type: Evaluation A (Pre-1980).
Where [10] appears, read: Species/Cell Type: Escherichia coli polA (W3119 vs P3478), Assay Type: Rec-assay, DNA effects (bacterial DNA repair), Assay Code: RE1+, Evaluation Type: Evaluation A (Pre-1980).
Where [11] appears, read: Species/Cell Type: Nonhuman, Assay Type: Sister-chromatid exchange (SCE) in vitro, Assay Code: SC2+, Evaluation Type: Evaluation B (Post-1980).
Where [12] appears, read: Species/Cell Type: Mammalian polychromatic erythrocytes, Assay Type: Micronucleus test, chromosome aberrations, Assay Code: MNTT, Evaluation Type: Evaluation B (Post-1980).
[13] abbreviates: Species/Cell Type: Salmonella typhimurium (one or more of the five standard strains: TA98, TA100, TA1535, TA1537, and TA1538), Assay Type: Histidine reverse gene mutation, Ames assay, Assay Code: SAL+, Evaluation Type: Evaluation A (Pre-1980).
Setting [14] is: Species/Cell Type: Human, Assay Type: Sister-chromatid exchange (SCE) in vitro, Assay Code: SC1+, Evaluation Type: Evaluation B (Post-1980).
Where [15] appears, read: Species/Cell Type: Human, Assay Type: Sister-chromatid exchange (SCE) in vitro, Assay Code: SC1+D, Dose Response: With dose response, Evaluation Type: Evaluation B (Post-1980).
Setting [16] is: Species/Cell Type: Nonhuman, Assay Type: Sister-chromatid exchange (SCE) in vitro, Assay Code: SC2+D, Dose Response: With dose response, Evaluation Type: Evaluation B (Post-1980).

Consider `CC(N)=S`, for which the mutagenic call was “active; positive” (Species/Cell Type: Drosophila melanogaster, Assay Type: Sex-linked recessive lethal gene mutation, Assay Code: SRL+, Evaluation Type: Evaluation A (Pre-1980)); “inactive; negative” (Species/Cell Type: Escherichia coli polA (W3110 vs P3478), Assay Type: Rec-assay, DNA effects (bacterial DNA repair), Assay Code: RE2-, Evaluation Type: Evaluation A (Pre-1980)); “no conclusion” (Species/Cell Type: Escherichia coli polA (W3119 vs P3478), Assay Type: Rec-assay, DNA effects (bacterial DNA repair), Assay Code: RE1T, Evaluation Type: Evaluation A (Pre-1980)); “active; positive” under setting [1]; “active; positive” (Species/Cell Type: Mammalian polychromatic erythrocytes, Assay Type: Micronucleus test, chromosome aberrations, Assay Code: MNT+, Evaluation Type: Evaluation B (Post-1980)); “active; positive” (Species/Cell Type: Mouse embryo (AKR/ME) cells, Assay Type: Cell transformation, Assay Code: CTK+, Evaluation Type: Evaluation A (Pre-1980)). Also, the mutagenic call by setting is: under setting [2], “inactive; negative”; (Species/Cell Type: Saccharomyces cerevisiae, Assay Type: Mitotic recombination or gene conversion, Assay Code: YEH+/-*, Activation: With metabolic activation, Evaluation Type: Evaluation A (Pre-1980)) “inactive; positive without activation, negative with activation”; (Species/Cell Type: Salmonella typhimurium (one or more of the five standard strains: TA98, TA100, TA1535, TA1537, and TA1538), Assay Type: Histidine reverse gene mutation, Ames assay, Assay Code: SAL-, Evaluation Type: Evaluation A (Pre-1980)) “inactive; negative”; under setting [4], “active; positive”; under setting [5], “active; positive”. Besides, under setting [3], the call is “active; positive”.
Take `COc1cccc(OC)c1C(=O)N[C@@H]1C(=O)N2[C@@H]1SC(C)(C)[C@@H]2C(=O)O`: under setting [6], the mutagenic call was “inactive; negative”.
For the molecule `CCN(CC)CCn1c2ccc(C)c3c2c([n+]1[O-])-c1ccc(Cl)cc1S3`, under setting [7], the mutagenic call is “no conclusion”.
As to `CN1CCN(CC(=O)NN)CC1`, the mutagenic call by setting is: under setting [8], “inactive; negative”; (Species/Cell Type: Saccharomyces cerevisiae, Assay Type: Mitotic recombination or gene conversion, Assay Code: YEC-*, Activation: With metabolic activation, Evaluation Type: Evaluation A (Pre-1980)) “inactive; negative”.
For `O=C(OCC1=CCN2CC[C@@H](OC(=O)c3ccc([N+](=O)[O-])cc3)[C@@H]12)c1ccc([N+](=O)[O-])cc1`, the mutagenic call under setting [9] was “active; positive”.
In the case of `CN(C)c1ccc(Cc2ccc(N(C)C)cc2)cc1`, the mutagenic call is “active; positive” under setting [10]; “active; positive” under setting [1]; “inactive; negative” (Species/Cell Type: Human diploid fibroblasts, Assay Type: Unscheduled DNA synthesis (UDS) in vitro, DNA effects, Assay Code: UDH-, Evaluation Type: Evaluation A (Pre-1980)); “active; positive” under setting [11]; “inactive; negative” (Species/Cell Type: Saccharomyces cerevisiae, Assay Type: Mitotic recombination or gene conversion, Assay Code: YEH-, Evaluation Type: Evaluation A (Pre-1980)); “active; positive” under setting [4]. Further, under setting [5], the mutagenic call is “active; positive”. Also, the call under setting [3] was “active; positive”.
Turning to `CCBr`, the mutagenic call (Species/Cell Type: Drosophila melanogaster, Assay Type: Sex-linked recessive lethal gene mutation, Assay Code: SRLT, Evaluation Type: Evaluation A (Pre-1980)) is reported as “no conclusion”.
Regarding `c1ccc(NNc2ccccc2)cc1`, under setting [3], the call was “active; positive”.
For `COc1cc([C@@H]2c3cc4c(cc3[C@@H](O[C@@H]3O[C@@H]5CO[C@@H](c6cccs6)O[C@H]5[C@H](O)[C@H]3O)[C@H]3COC(=O)[C@H]23)OCO4)cc(OC)c1O`, the mutagenic call reads like this: (Species/Cell Type: Chinese hamster ovary (CHO) cells, Assay Type: Forward gene mutation at the HPRT locus, Assay Code: CHO+, Evaluation Type: Evaluation B (Post-1980)) “active; positive”; under setting [11], “active; positive”.
For the molecule `CC(=O)NNC(C)=O`, the mutagenic call under setting [12] was “no conclusion”.
For the molecule `c1ccc2c(c1)-c1ccc3ccccc3c1C1OC21` (configuration not stated), the mutagenic call runs as follows: (Species/Cell Type: Mouse prostate cells, Assay Type: Cell transformation, Assay Code: CTM-, Evaluation Type: Evaluation A (Pre-1980)) “inactive; negative”; under setting [13], “active; positive”; under setting [5], “active; positive”.
Consider `ONc1ccccc1`, for which, under setting [14], the mutagenic call was “active; positive”.
Consider `OCl`, for which the mutagenic call by setting is: under setting [10], “active; positive”; (Species/Cell Type: Human lymphocytes or leukocytes, Assay Type: Chromosome aberrations in vitro, Assay Code: CY7+D, Dose Response: With dose response, Evaluation Type: Evaluation A (Pre-1980)) “active; positive”; under setting [14], “active; positive”; under setting [12], “no conclusion”; (Species/Cell Type: Nonhuman, Assay Type: Chromosome aberrations in vitro, Assay Code: CY&+D, Dose Response: With dose response, Evaluation Type: Evaluation A (Pre-1980)) “active; positive”; under setting [7], “no conclusion”.
For the molecule `COc1cc(/C=N/NC(=O)COc2ccc(Br)cc2CN2CCCCC2)ccc1O`, the mutagenic call (Species/Cell Type: Saccharomyces cerevisiae, Assay Type: Reverse gene mutation, Assay Code: YERT, Evaluation Type: Evaluation A (Pre-1980)) is reported as “no conclusion”.
Regarding `Cc1cc(C)[o+]c(C)c1`, the mutagenic call under setting [9] was “active; positive”.
With `CC(=O)OCC1=C(C(=O)O)N2C(=O)[C@@H](NC(=O)Cc3cccs3)[C@H]2SC1`, under setting [6], the mutagenic call is “inactive; negative”.
In the case of `O=[N+]([O-])c1ccc(N2CCN(c3ccccc3)CC2)c2c1no[n+]2[O-]`, under setting [13], the mutagenic call is “active; positive”.
Regarding `NC12CC3CC(CC(C3)C1)C2`, the mutagenic call (Species/Cell Type: Fischer rat embryo (RLV/1706) cells, Assay Type: Cell transformation, viral enhanced, Assay Code: CTR-, Evaluation Type: Evaluation A (Pre-1980)) is “inactive; negative”.
Regarding `OC1C2OC2=C2C=c3ccc4cccc5ccc(c3c54)C2C1O` (configuration not stated), the mutagenic call (Species/Cell Type: Chinese hamster lung (V79) cells, Assay Type: Forward gene mutation at the HPRT or ouabain locus, Assay Code: V79+, Evaluation Type: Evaluation A (Pre-1980)) is “active; positive”.
Regarding `O=c1[nH]c(=O)n([C@H]2C[C@H](O)[C@@H](CO)O2)cc1/C=C/C(F)(F)F`, the mutagenic call under setting [15] was “active; positive”.
Take `O[C@@H]([C@H](O)[C@H](O)CBr)[C@H](O)CBr`: where the note is “Species/Cell Type: Nonhuman, Assay Type: Sister-chromatid exchange (SCE) in vivo, Assay Code: SC3+D, Dose Response: With dose response, Evaluation Type: Evaluation B (Post-1980)”, the mutagenic call was “active; positive”.
Regarding `CN(C)CCN(Cc1cccs1)c1ccccn1`, the mutagenic call was “no conclusion” (Species/Cell Type: Chinese hamster ovary (CHO) cells, Assay Type: Forward gene mutation at the HPRT locus, Assay Code: CHOT, Evaluation Type: Evaluation B (Post-1980)); “inactive; negative” (Species/Cell Type: Nonhuman, Assay Type: Sister-chromatid exchange (SCE) in vitro, Assay Code: SC2-, Evaluation Type: Evaluation B (Post-1980)); “inactive; negative” (Species/Cell Type: Nonhuman, Assay Type: Sister-chromatid exchange (SCE) in vivo, Assay Code: SC3-, Evaluation Type: Evaluation B (Post-1980)).
Take `O=P(N1CC1)(N1CC1)N1CCN(P(=O)(N2CC2)N2CC2)CC1`: the mutagenic call by setting is: (Species/Cell Type: Human lymphocytes, Assay Type: Sister-chromatid exchange (SCE) in vitro, Assay Code: SCL+D, Dose Response: With dose response, Evaluation Type: Evaluation B (Post-1980)) “active; positive”; under setting [15], “active; positive”; under setting [16], “active; positive”.
Turning to `CC(=O)Nc1nnc(-c2ccc([N+](=O)[O-])o2)s1`, the mutagenic call under setting [13] is “active; positive”.
On to `Cc1ccc(Cl)cc1N`, for which, under setting [2], the mutagenic call is “inactive; negative”. Further, the call (Species/Cell Type: Nonhuman, Assay Code: CCG+L, Evaluation Type: Evaluation A (Pre-1980)) is “active; positive”.
For the molecule `C/C=C/C=C/C#C/C=C/C=C/CCCCCOC(C)=O`, the mutagenic call (Species/Cell Type: Nonhuman, Assay Type: Sister-chromatid exchange (SCE) in vitro, Assay Code: SC2T, Evaluation Type: Evaluation B (Post-1980)) is given as “no conclusion”.
Turning to `COP(=O)(OC)O/C(C)=C/C(=O)N(C)C`, the mutagenic call was “active; positive” under setting [16] and “active; positive” (Species/Cell Type: Saccharomyces cerevisiae, Assay Type: Mitotic recombination or gene conversion, Assay Code: YEC+, Evaluation Type: Evaluation A (Pre-1980)).
As for `O[As](O)O`, the mutagenic call is “inactive; negative” under setting [8] and “active; positive” (Species/Cell Type: Human lymphocytes or leukocytes, Assay Type: Chromosome aberrations in vitro, Assay Code: CY7+, Evaluation Type: Evaluation A (Pre-1980)).
